Results reported in patent US20170088609A1, “ANTICANCER COMBINATION THERAPY” (priority 2015, published 2017).

How the values were obtained:
EGFR mutant cell lines = experiment: Cellular assays comparing EGFR mutant with EGFR wild type cell lines (proliferation); assay type: cell-based; conditions: EGFR mutant vs EGFR wild type cell lines
From the text: (§1) Compound 1 is a small molecule epidermal growth factor receptor (EGFR) mutant-specific inhibitor. […] Anti-tumor efficacy was independent of schedule (once daily versus twice daily administration) and was tolerated by the mice at clinically relevant exposure. Compound 1 is a novel, 3rd generation EGFR mutant-specific TKI, which is currently being investigated in first and second line setting for treatment of patients with EGFR-mutated NSCLC.

H1975 (EGFRL858R/T790M) = experiment: In vivo xenograft study, NSCLC model H1975; conditions: H1975 xenograft in mice; once daily or twice daily
From the text: as §1

mutant forms of EGFR = experiment: Enzymatic inhibitory activity towards EGFR; assay type: biochemical
From the text: as §1

[1] = tested on: HCC827 (EGFRDelE746-A750)
From the text: as §1

[2] = tested on: PC-9/GR/WR tumor xenografts; experiment: PC-9/GR/WR xenograft studies (tumor volume); assay type: in vivo; conditions: SCID mice; HM61713 200 and 400 mg/kg oral gavage 5 days a week
Description: To establish the PC-9/GR/WR xenograft model, female severe combined immunodeficiency (SCID) mice (18-20 g, 6 weeks of age) were purchased from Charles River Laboratories. All experimental procedures were conducted following a protocol approved by the Institutional Animal Care and Use committee of Asan Institute for Life Sciences (2015-02-062). […] Combination with WZ4002: […] Combination with HM61713: […] Body weights were measured every 3-4 days. At the end of the combination experiment with WZ4002, tumors from each group were homogenized for lysate preparation and analyzed by Western Blotting.

[3] = tested on: T790M-containing cell lines; conditions: several preclinical models; cited from earlier work

Row | SMILES | inhibition of proliferation of mutated cell lines at lower concentration than for cells expressing wild type EGFR receptor (EGFR mutant cell lines) | anti-tumor activity as a single agent (H1975 (EGFRL858R/T790M)) | blocking of the catalytic activity of EGFR mutants (mutant forms of EGFR; common EGFR mutants (L858R and exon 19 deletions) and certain uncommon EGFR mutants including T790M, covalent binding) | enzymatic inhibitory activity towards mutant forms of EGFR compared to wild type EGFR (mutant forms of EGFR; in vitro) | anti-tumor activity as a single agent ([1]; HCC827 xenograft in mice, once daily or twice daily) | tolerability in mice ([1]; mouse, in vivo) | response of PC-9/GR/WR tumor xenografts to monotherapy [2] | inhibition of T790M-containing cell lines [3]
1 | C=CC(=O)Nc1cccc(Oc2nc(Nc3ccc(N4CCN(C)CC4)cc3)nc3ccsc23)c1 [compound 1, N-(3-{2-[4-(4-methyl-piperazin-1-yl)-phenylamino]-thieno[3,2-d]pyrimidin-4-yloxy}-phenyl)-acrylamide] | approximately 35 fold | Tumor regressions | irreversibly blocks | more potent | Tumor regressions | tolerated | Cross-resistance | –
2 | COc1cc2ncnc(Nc3ccc(F)c(Cl)c3)c2cc1NC(=O)/C=C/CN1CCCCC1 [dacomitinib] | – | – | – | – | – | – | – | effectively inhibit
